Values of other authors as cited in US10080720B2, “Pharmaceutical composition containing docetaxel” (GAINIA (SHANGHAI) PATENT TECHNOLOGY LTD., priority 2014, dated 2018).

solubility of docetaxel in water: 6 to 7 µg/mL
SMILES: CC(=O)O[C@@]12CO[C@@H]1C[C@H](O)[C@@]1(C)C(=O)[C@H](O)C3=C(C)[C@@H](OC(=O)[C@H](O)[C@@H](NC(=O)OC(C)(C)C)c4ccccc4)C[C@@](O)([C@@H](OC(=O)c4ccccc4)[C@H]21)C3(C)C [docetaxel]
